Series [1] can be described thus: Aqueous solubility of the compound at pH 7. It counts as physicochemical.
Series [2] relates to Human immunodeficiency virus type 1 integrase (Human immunodeficiency virus 1), Q7ZJM1 [N155H]. As to the kind of experiment: Inhibition of HIV-1 integrase N155H mutant strand transfer activity assessed as reduction viral replication.
In series [3] the test system is Human immunodeficiency virus type 1 integrase (Human immunodeficiency virus 1), Q7ZJM1 [Y143R]. Nature of the series: Inhibition of HIV-1 integrase Y143R mutant strand transfer activity assessed as reduction in viral replication.
A short description of series [4]: Volume of distribution in Beagle dog at 0.5 mg/kg, iv or 1 mg/kg, po. The class given is ADME, organism-based, Canis lupus familiaris. Particulars: in vivo.
Series [5] deals with Human immunodeficiency virus type 1 integrase (Human immunodeficiency virus 1), Q7ZJM1 [E92Q]. As to the kind of experiment: Inhibition of HIV-1 integrase E92Q mutant strand transfer activity assessed as reduction in viral replication.
Series [6] deals with Human immunodeficiency virus type 1 integrase (Human immunodeficiency virus 1), Q7ZJM1 [Q148K]. As to the kind of experiment: Inhibition of HIV-1 integrase Q148K mutant strand transfer activity assessed as reduction in viral replication.
Series [7] has as its system Human immunodeficiency virus type 1 integrase (Human immunodeficiency virus 1), Q7ZJM1 [Q148R]. As to the kind of experiment: Inhibition of HIV-1 integrase Q148R mutant strand transfer activity assessed as reduction in viral replication.
The subject of series [8] is Human immunodeficiency virus type 1 integrase (Human immunodeficiency virus 1), Q7ZJM1 [G140S,Q148H]. Nature of the series: Inhibition of HIV-1 integrase G140S/Q148H double mutant strand transfer activity assessed as reduction in viral replication.
A short description of series [9]: Clearance in Beagle dog at 0.5 mg/kg, iv or 1 mg/kg, po. Conditions: in vivo. It counts as ADME, organism-based, Canis lupus familiaris.
The subject of series [10] is Human immunodeficiency virus 1. Nature of the series: Inhibition of wild-type HIV-1 integrase strand transfer activity assessed as reduction in viral replication in presence of 10% normal human serum.
Series [11] can be described thus: Half life in Beagle dog at 0.5 mg/kg, iv or 1 mg/kg, po. The class given is ADME, organism-based, Canis lupus familiaris. Conditions: in vivo.
Series [12] in a line: Aqueous solubility of the compound at pH 2. It counts as physicochemical.
Series [13] relates to Human immunodeficiency virus 1. Nature of the series: Inhibition of HIV-1 integrase strand transfer activity assessed as reduction in viral replication in presence of 50% normal human serum.
Series [14] is described as follows: Oral bioavailability in Beagle dog at 1 mg/kg. It counts as ADME, organism-based, Canis lupus familiaris. Conditions: in vivo.
Series [15] is described as follows: Plasma protein binding in Beagle dog. Conditions: read-out: PPB (converted). It counts as ADME, cell-free, Canis lupus familiaris.
Series [16] can be described thus: Apparent permeability of the compound. It counts as physicochemical. Particulars: not told.

This note sets out measurements from ChEMBL document CHEMBL4011594, “Discovery and optimization of 2-pyridinone aminal integrase strand transfer inhibitors for the treatment of HIV” (Bioorg Med Chem Lett, 2017).

Values after ≈ are worked out from the molar mass of the structure shown.

As usually defined, the solubility is the concentration that dissolves in the medium under given conditions. Read a high solubility as much dissolved substance. One may read the half-life as how long it takes for the measured level to halve. Higher therefore signals slow loss. One may read the bioavailability as dose-corrected exposure relative to a reference, in per cent. Higher therefore signals good availability. As for `O=C1N[C@]2(CC[C@H]3C[C@H]32)n2c1c1c(c(O)c2=O)C(=O)N(Cc2ccc(F)c(Cl)c2)CC1`, the solubility in [1] is 31 µM (≈ 13.8 µg/mL); in [12], 30 to 50 µM (≈ 13.3 to 22.2 µg/mL). The IP in series [2] is 84 nM; in series [3], 28 nM; in series [5] it was 210 nM; in series [6], 450 nM; in series [7], 107 nM; in series [8] it was 491 nM. Moreover, the IP in series [10] is 30 nM; in series [13] it was 206 nM. In series [4], this molecule registered a Vd of 0.1 L/kg. In [9], this molecule yielded a clearance of 0.12 mL/min/kg. The molecule also gave a half-life in [11] of 13 h. Besides, the bioavailability in series [14] stood at 15%.
As a reminder, the Papp is a coefficient for how fast a substance crosses the barrier. As to `N#Cc1cccc2c1[C@]1(CC2)NC(=O)c2c3c(c(O)c(=O)n21)C(=O)N(Cc1ccc(F)c(Cl)c1)CC3`, the solubility was determined as 10 µM (≈ 5.05 µg/mL) in series [1] and 8 µM (≈ 4.04 µg/mL) in [12]. The IP stood at 13 nM in [2]; 4 nM in series [3]; 18 nM in [5]; 9 nM in series [6]; 7 nM in series [7]; 18 nM in series [8]. Besides, the values for the IP in series [10] and in series [13] were 4 nM and 18 nM, respectively. The molecule also gave a Vd in [4] of 0.9 L/kg. In series [9], the clearance was found to be 2.4 mL/min/kg. This molecule also had a half-life in series [11] of 10.6 h. Also, in series [15], the fraction unbound was 0.028. Besides, the Papp in series [16] was 7 ×10⁻⁶ cm/s. In series [14], the bioavailability stood at 40%.
Take `C[C@H](O)CN1C(=O)c2c3c(c(O)c(=O)n2[C@@]12CC[C@H]1C[C@H]12)C(=O)N(Cc1ccc(F)c(Cl)c1)CC3`: the solubility in [1] came out at 98 µM (≈ 49.2 µg/mL); in series [12], 125 µM (≈ 62.7 µg/mL). In addition, the IP in [2] was 11 nM; in series [3] it was 11 nM; in series [5] it was 10 nM; in series [6] it was 10 nM; in series [7], 10 nM; in series [8], 27 nM. Also, the IP in [10] worked out at 8 nM; in series [13], 44 nM. The Vd in [4] came to 0.5 L/kg. For the same molecule, the clearance in series [9] was found to be 2.9 mL/min/kg. This molecule also had a half-life in series [11] of 6 h. In series [15], the fraction unbound is 0.025. The bioavailability in [14] stood at 42%.
Regarding `O=C1c2c(c3n(c(=O)c2O)C2(CCC4CC42)N(CCN2C(=O)CCC2=O)C3=O)CCN1Cc1ccc(F)c(Cl)c1` (stereo not given), the solubility in series [1] amounted to 48 µM (≈ 27.3 µg/mL); in [12], 89 µM (≈ 50.6 µg/mL). The IP turned out to be 8 nM in series [2]; 11 nM in series [3]; 7 nM in series [5]; 7 nM in [6]; 7 nM in series [7]; 23 nM in series [8]. Moreover, the IP was determined as 7 nM in [10] and 46 nM in [13]. In series [4], the Vd worked out at 2.1 L/kg. In series [9], this molecule displayed a clearance of 7.3 mL/min/kg. Moreover, the half-life in series [11] was 6.6 h. The fraction unbound in series [15] was 0.058. This molecule also came in with a bioavailability in [14] of 4.5 to 5%.
Regarding `O=C1c2c(c3n(c(=O)c2O)[C@@H](C2CC2)N(C2CC2)C3=O)CCN1Cc1ccc(F)c(Cl)c1`, the solubility in series [1] came out at 34 µM (≈ 15.6 µg/mL); in [12], 40 µM (≈ 18.3 µg/mL). For the same molecule, the IP in [2] was 271 nM; in [3], 142 nM; in series [5], 123 nM; in series [6] it was 820 nM; in [7], 1010 nM; in [8] it was 1540 nM. Also, the IP is 95 nM in series [10] and 1730 nM in series [13]. Also, the Vd in [4] is 0.7 L/kg. The molecule further returned a clearance in series [9] of 1.4 mL/min/kg. Besides, the half-life in series [11] is 7.5 h. Also, in series [15], the fraction unbound is 0.024. Also, in series [14], the bioavailability came to 44%.
